Assay [1] relates to colitis models. Nature of the assay: Colitis models (dextran sulfate sodium). Format: in vivo, C57BL/6J mice. The following applies: intraperitoneally twice a day after 8 days from supply of DSS; disease-induced models lost to 17.5 to 18 g. As to the method: 3.0% dextran sulfate sodium (DSS: MP biomedicals) was dissolved in deionized water and supplied to 9-week-old C57BL/6J mice for 5 to 7 days and then water was normally supplied to the mice to induce colitis in animal models. The experimental animals were classified into a solvent control group and each group treated with Compound 254 and Compound 255 as test materials based on the body weight of the experimental animals. The test material was intraperitoneally injected twice a day after 8 days from the supply of DSS. The evaluation of the efficacy in colitis models was made by determining the degree to which the weight, lost due to the disease, was recovered to normal level, and the results are shown in FIG. 6.

Assay [2] addresses T1, HDAC 5 (Homo sapiens, UniProt Q9UQL6).
T1 construct: Reaction Biology Corp
Nature of the assay: HDAC panel by Reaction Biology Corp., HDAC 5. The format is biochemical. The following applies: read-out: HDAC inhibitory activities, HDAC 5. The source says:
The inhibitory activities of Compounds 255 and 374 on all HDACs were confirmed (by Reaction Biology Corp.).

T1 sequence (Q9UQL6 whole entry): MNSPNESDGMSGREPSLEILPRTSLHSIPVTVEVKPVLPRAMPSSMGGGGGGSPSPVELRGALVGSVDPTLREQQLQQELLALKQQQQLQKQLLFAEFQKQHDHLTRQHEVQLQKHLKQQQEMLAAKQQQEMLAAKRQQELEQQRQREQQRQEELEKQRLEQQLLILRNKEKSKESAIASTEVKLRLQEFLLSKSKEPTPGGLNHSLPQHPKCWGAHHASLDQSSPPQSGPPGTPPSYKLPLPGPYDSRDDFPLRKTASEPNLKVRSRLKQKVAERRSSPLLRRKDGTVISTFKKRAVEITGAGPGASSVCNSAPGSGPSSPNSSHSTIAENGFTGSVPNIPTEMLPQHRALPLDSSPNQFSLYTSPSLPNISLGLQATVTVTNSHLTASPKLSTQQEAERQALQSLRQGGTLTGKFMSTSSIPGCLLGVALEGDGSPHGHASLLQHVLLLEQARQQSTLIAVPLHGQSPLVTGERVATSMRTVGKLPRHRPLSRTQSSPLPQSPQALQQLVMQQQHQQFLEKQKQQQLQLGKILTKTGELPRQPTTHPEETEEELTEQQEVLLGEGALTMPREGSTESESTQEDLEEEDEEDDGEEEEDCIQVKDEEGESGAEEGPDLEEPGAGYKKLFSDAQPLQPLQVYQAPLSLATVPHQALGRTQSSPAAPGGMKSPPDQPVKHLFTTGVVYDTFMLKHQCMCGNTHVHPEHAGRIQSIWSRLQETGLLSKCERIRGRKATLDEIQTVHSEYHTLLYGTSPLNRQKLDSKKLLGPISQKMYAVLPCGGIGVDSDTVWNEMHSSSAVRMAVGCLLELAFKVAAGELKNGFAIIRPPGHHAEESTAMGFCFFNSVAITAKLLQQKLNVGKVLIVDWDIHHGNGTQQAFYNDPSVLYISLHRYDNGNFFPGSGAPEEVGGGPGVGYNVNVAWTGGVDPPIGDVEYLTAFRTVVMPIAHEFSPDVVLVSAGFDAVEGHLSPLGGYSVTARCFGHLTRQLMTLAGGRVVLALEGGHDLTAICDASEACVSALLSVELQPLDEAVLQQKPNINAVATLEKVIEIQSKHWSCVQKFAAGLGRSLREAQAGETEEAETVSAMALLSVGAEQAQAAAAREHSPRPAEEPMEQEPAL

As for `O=C(NO)c1ccc(CN(C(=O)N2CCOCC2)c2cccc(Br)c2)cc1` [Compound 255, N-(3-bromophenyl)-N-(4-(hydroxycarbamoyl)benzyl)morpholine-4-carboxamide], the “weight recovered to” value in assay [1] is recorded as 19 to 19.5 g. For the same compound, in assay [2], the IC50 came to 8.27 µM.

These data come from US9878986B2, “Compounds for selective histone deacetylase inhibitors, and pharmaceutical composition comprising the same” (CHONG KUN DANG PHARMACEUTICAL CORP., priority 2013, dated 2018).
